According to patent US11198673B2, “Therapeutic compounds and compositions” (eXIthera Pharmaceuticals, Inc., priority 2014, dated 2021):

Target: T1, human Factor XIa (Homo sapiens, UniProt P03951)
T1 construct: Enzyme: Factor XIa; 0.25 μM in 50% glycerol (20 μg/mL)
Assay: Factor XIa enzyme inhibition assay (IC50, purified enzyme)
Format: biochemical
Conditions: purified enzyme 0.25 nM, substrate 50 μM; read-out: Potency hFXIa IC50
Method: (§1) • Assay buffer: 20 mM Hepes, pH 7.4; 150 mM NaCl; 0.02% Tween 20 • Compounds: 10 mM stocks in DMSO • Substrate: 20 mM Glp-Pro-Arg-AMC, 25 mg/2.3 mL H2O (store at +4° C.) [Factor XIa, thrombin, and trypsin] • 20 mM Pro-Phe-Arg-AMC (Bachem I-1295), 25 mg/2.2 mL H2O (store at +4° C.) [Factor Xa] • Enzyme: Factor XIa; 0.25 μM in 50% glycerol (20 μg/mL) • Trypsin; 0.2 μM in 50% glycerol (4.8 μg/mL) • Thrombin; 0.2 μM in 50% glycerol (7.34 μg/mL) • Factor Xa; 0.2 μM in 50% glycerol (9.2 μg/mL) • These stocks are aliquoted ([…]) and stored at −20° C. Methods: • 1. Dilute the substrate to 100 μM in assay buffer (30 μL/6 mL). The enzyme is diluted to 0.5 nM just prior to use (12 μL/6 mL for Factor XIa; 15 μL/6 mL for all of the rest.) • 2. Pipette 50 μL of substrate into each well of the 96 well (12×8) microtiter plate. (Column 1 is used as the 100% activity control and receives no compound, and Column 12 is the blank and receives no enzyme.) Add an additional 46 μL to column 2. • 3. Pipette 4 μL of each compound into the appropriate well in column 2 of the plate (unknowns assayed in triplicate, standard assayed in duplicate). The final compound concentration will be 1/50th of the stock. • 4. Serially two-fold dilute the compound by mixing the sample in column 2, removing 50 μL to the next well (column 3), mix and remove to column 4, etc. until column 11. After mixing column 11, remove 50 μL and discard. • 5. Pipette 50 μL of buffer into column 12. Initiate the reaction by adding 50 μL of enzyme solution to each well of columns 1-11 as rapidly as possible. • 6. Read the plate in a spectrophotometer (SpectraMax) at 30° C., wherein each well is measured every 60 s for 30 min. For Factor Xa assays, each well is measured every 1 min for a total of 60 min. • 7. For Factor XIa assays, the compounds are assayed, in duplicate, at 3 different starting concentrations, 20, 2, and 0.2 μM; 1:10, 1:100, and 1:1000 dil'n of 10 mM stock. All data sets are combined for graphing and data fitting. • 8. Data can be used both for estimation of IC50 and for estimation of Kon.
Potential inhibitors of Factor XIa were evaluated using the following assay.
S-2366, pyroGlu-Pro-Arg-7-methylaminocourin (AMC), available from CPC Scientific, Inc., is based on the substrate pyro-Glu-Pro-Arg-pNA, available from Diapharma Group, Inc. (Columbus, Ohio), where the p-nitroanaline group is replaced with 7-methylaminocoumarin (AMC).
The final concentration of the substrate in the assay was 50 μM, and the final concentration of the enzyme was 0.25 nM. Inhibitors were tested by serial dilution over an appropriate range to yield a dose response curve for determination of the inhibitors' IC50 value. The assay mixture was read every minute for 30 minutes in order to generate progress curves. The plates were read in a Spectramax m5 Multimode Plate Reader (Molecular Devices LLC, Sunnyvale, Calif.). Dose response curves were fit to Equation 1 below in which A is the maximum inhibition, B is the minimum inhibition, C is the IC50, and D is the Hill coefficient. [(A−B)/(1+(X/C)^D)]+B (Equation 1)

T1 sequence (P03951 388-625 limits assumed): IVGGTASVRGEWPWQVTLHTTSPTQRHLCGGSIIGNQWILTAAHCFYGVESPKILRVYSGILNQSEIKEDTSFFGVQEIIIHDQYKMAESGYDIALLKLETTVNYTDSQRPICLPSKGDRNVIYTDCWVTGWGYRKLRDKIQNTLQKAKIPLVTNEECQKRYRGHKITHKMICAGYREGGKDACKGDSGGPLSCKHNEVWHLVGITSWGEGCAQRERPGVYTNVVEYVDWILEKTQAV
T1 sequence (P03951 19-387 partner limits assumed): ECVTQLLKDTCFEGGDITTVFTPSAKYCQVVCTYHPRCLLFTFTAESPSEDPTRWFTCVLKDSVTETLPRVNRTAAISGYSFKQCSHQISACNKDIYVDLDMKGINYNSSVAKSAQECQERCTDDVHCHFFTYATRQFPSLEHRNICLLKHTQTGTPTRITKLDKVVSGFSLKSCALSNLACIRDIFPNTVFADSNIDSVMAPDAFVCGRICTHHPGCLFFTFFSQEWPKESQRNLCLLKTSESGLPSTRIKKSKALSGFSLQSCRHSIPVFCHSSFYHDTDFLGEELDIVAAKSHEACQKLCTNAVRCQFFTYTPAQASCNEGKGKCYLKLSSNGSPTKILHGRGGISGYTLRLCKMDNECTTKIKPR

| IC50 | SMILES |
| --- | --- |
| 10 to 100 nM | CC(=O)OCOC(=O)[C@@H]1[C@@H](Cc2ccnc(NC(=O)OCOC(=O)C(C)C)c2)C(=O)N1C(=O)N[C@H](C)c1ccc2c(c1)OC(F)(F)O2 [Example 180] |
| > 1000 nM | CCCCCCOC(=O)Nc1cc(C[C@H]2C(=O)N(C(=O)NC(c3ccccc3)c3ccccc3)[C@@H]2C(=O)O)ccn1 [Example 56] |
| > 1000 nM | C[C@@H](NC(=O)N1C(=O)[C@H](Cc2cncs2)[C@H]1C(=O)O)c1ccc2c(c1)OC(F)(F)O2 [Example 102] |
| 10 to 100 nM | CCOC(=O)[C@@H]1[C@@H](Cc2ccnc(NC(=O)OC(C)OC(=O)C(C)C)c2)C(=O)N1C(=O)N[C@H](C)C1CCCCC1 (some centres unmarked) [Example 150] |

The next lines start with the compound.

| SMILES | IC50 |
| --- | --- |
| CC[C@@H](NC(=O)N1C(=O)[C@H](Cc2ccnc(N)c2)[C@H]1C(=O)O)c1ccccc1 [Example 36] | < 10 nM |
| COC(=O)[C@@H]1[C@@H](Cc2ccc(Cl)s2)C(=O)N1C(=O)N[C@H](C)c1ccccc1 [Example 2] | > 1000 nM |
| Nc1cc(CC[C@H]2C(=O)N(C(=O)NC(c3ccccc3)c3ccccc3)[C@@H]2C(=O)O)ccn1 [Example 25] | 100 to 1000 nM |
| C[C@@H](NC(=O)N1C(=O)[C@H](Cc2ccnc(N)c2)[C@H]1C(=O)O)c1cccnc1 [Example 54] | 10 to 100 nM |
| Nc1ncc(C[C@H]2C(=O)N(C(=O)NC(c3ccccc3)c3ccccc3)[C@@H]2C(=O)O)s1 [Example 23] | 100 to 1000 nM |
| C[C@@H](NC(=O)N1C(=O)[C@H](Cc2ccnc(N)c2)[C@H]1C(=O)OCc1ccccc1)c1ccccc1 [Example 1] | < 10 nM |

Target: T2, Factor Xa (Homo sapiens, UniProt P00742)
T2 construct: Factor Xa; 0.2 μM in 50% glycerol (9.2 μg/mL)
T2 sequence (P00742 235-488 limits assumed): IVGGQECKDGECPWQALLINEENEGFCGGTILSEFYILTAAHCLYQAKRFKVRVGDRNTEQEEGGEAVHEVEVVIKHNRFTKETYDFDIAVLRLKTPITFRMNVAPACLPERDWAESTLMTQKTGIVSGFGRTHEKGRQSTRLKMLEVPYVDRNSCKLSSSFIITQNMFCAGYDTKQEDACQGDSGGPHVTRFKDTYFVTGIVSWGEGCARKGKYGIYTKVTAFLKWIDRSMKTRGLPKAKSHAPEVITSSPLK
T2 sequence (P00742 41-179 partner limits assumed): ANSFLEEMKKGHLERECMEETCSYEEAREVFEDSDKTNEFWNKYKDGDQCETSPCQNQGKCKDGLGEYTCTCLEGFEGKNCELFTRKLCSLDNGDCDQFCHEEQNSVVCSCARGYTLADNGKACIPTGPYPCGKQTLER
Assay: Dose response assay for protease inhibitors: Factor Xa (FXIa fold selectivity)
Format: biochemical
Conditions: fold selectivity for FXIa over Factor Xa
Method: as §1

| SMILES | FXIa Fold Selectivity FXa |
| --- | --- |
| CC[C@@H](NC(=O)N1C(=O)[C@H](Cc2ccnc(N)c2)[C@H]1C(=O)O)c1ccccc1 [Example 36] | I (“I” indicates >1000) |
| Nc1cc(CC[C@H]2C(=O)N(C(=O)NC(c3ccccc3)c3ccccc3)[C@@H]2C(=O)O)ccn1 [Example 25] | G (“G” indicates 1-500) |
| C[C@@H](NC(=O)N1C(=O)[C@H](Cc2ccnc(N)c2)[C@H]1C(=O)O)c1cccnc1 [Example 54] | H (“H” indicates 500-1000) |
| Nc1ncc(C[C@H]2C(=O)N(C(=O)NC(c3ccccc3)c3ccccc3)[C@@H]2C(=O)O)s1 [Example 23] | G (“G” indicates 1-500) |
| C[C@@H](NC(=O)N1C(=O)[C@H](Cc2ccnc(N)c2)[C@H]1C(=O)OCc1ccccc1)c1ccccc1 [Example 1] | G (“G” indicates 1-500) |

Target: T3, Thrombin (Homo sapiens, UniProt P00734)
T3 construct: Thrombin; 0.2 μM in 50% glycerol (7.34 μg/mL)
Assay: Dose response assay for protease inhibitors: thrombin (FXIa fold selectivity)
Format: biochemical
Conditions: fold selectivity for FXIa over thrombin
Method: as §1

| SMILES | FXIa Fold Selectivity Thrombin |
| --- | --- |
| CC[C@@H](NC(=O)N1C(=O)[C@H](Cc2ccnc(N)c2)[C@H]1C(=O)O)c1ccccc1 [Example 36] | I (“I” indicates >1000) |
| COC(=O)[C@@H]1[C@@H](Cc2ccc(Cl)s2)C(=O)N1C(=O)N[C@H](C)c1ccccc1 [Example 2] | G (“G” indicates 1-500) |
| Nc1cc(CC[C@H]2C(=O)N(C(=O)NC(c3ccccc3)c3ccccc3)[C@@H]2C(=O)O)ccn1 [Example 25] | G (“G” indicates 1-500) |
| C[C@@H](NC(=O)N1C(=O)[C@H](Cc2ccnc(N)c2)[C@H]1C(=O)O)c1cccnc1 [Example 54] | I (“I” indicates >1000) |
| Nc1ncc(C[C@H]2C(=O)N(C(=O)NC(c3ccccc3)c3ccccc3)[C@@H]2C(=O)O)s1 [Example 23] | G (“G” indicates 1-500) |
| C[C@@H](NC(=O)N1C(=O)[C@H](Cc2ccnc(N)c2)[C@H]1C(=O)OCc1ccccc1)c1ccccc1 [Example 1] | G (“G” indicates 1-500) |

Test system: Trypsin
Assay: Dose response assay for protease inhibitors: trypsin (FXIa fold selectivity)
Format: biochemical
Conditions: fold selectivity for FXIa over trypsin
Method: as §1

| SMILES | FXIa Fold Selectivity Trypsin |
| --- | --- |
| CC[C@@H](NC(=O)N1C(=O)[C@H](Cc2ccnc(N)c2)[C@H]1C(=O)O)c1ccccc1 [Example 36] | G (“G” indicates 1-500) |
| COC(=O)[C@@H]1[C@@H](Cc2ccc(Cl)s2)C(=O)N1C(=O)N[C@H](C)c1ccccc1 [Example 2] | G (“G” indicates 1-500) |
| Nc1cc(CC[C@H]2C(=O)N(C(=O)NC(c3ccccc3)c3ccccc3)[C@@H]2C(=O)O)ccn1 [Example 25] | G (“G” indicates 1-500) |
| C[C@@H](NC(=O)N1C(=O)[C@H](Cc2ccnc(N)c2)[C@H]1C(=O)O)c1cccnc1 [Example 54] | G (“G” indicates 1-500) |
| Nc1ncc(C[C@H]2C(=O)N(C(=O)NC(c3ccccc3)c3ccccc3)[C@@H]2C(=O)O)s1 [Example 23] | G (“G” indicates 1-500) |
| C[C@@H](NC(=O)N1C(=O)[C@H](Cc2ccnc(N)c2)[C@H]1C(=O)OCc1ccccc1)c1ccccc1 [Example 1] | G (“G” indicates 1-500) |

Test system: not listed separately
Assay: β-Lactam stability in rat plasma
Format: in vitro ADME
Conditions: normal rat plasma, room temperature; read-out: Rat Plasma Stability (T1/2; min)
Method: Normal rat plasma, stored at −80° C.
• 1. Place 6 μL of each compound into 0.5 mL microcentrifuge tubes or 96-well U-bottom, polypropylene microtiter plate • 2. Place 40 μL of acetonitrile (AcN) into 0.5 mL microcentrifuge tubes labeled 1-9 • 3. Add 114 μL of plasma to each compound • 4. Sample 10 μL of compound/plasma into AcN at 2, 10, 20, 30, 60, 90, 120, 240, and 480 min of incubation at room temperature • 5. Mix each time point after adding sample and place on ice. • 6. Centrifuge time points (12,000 rpm, 3 min), remove 15 μL of the supernatant and mix with 15 μL 0.1% TFA in a V-bottom microtiter plate. • 7. Place microtiter plate in autosampler of HPLC and analyze on Restek Pinnacle C18 column (2.1×100 mm). • 8. Generate extracted ion chromatogram for parent compound and parent compound+18 (H2O). Integrate extracted ion chromatograms (EIC) and plot % total peak area for parent and adduct versus time. Fit to a model of single phase exponential decay [Y=A0*exp(−k*x)+C]. T½ is equal to ln(2)/k.

| SMILES | half-life |
| --- | --- |
| COC(=O)[C@@H]1[C@@H](Cc2ccc(Cl)s2)C(=O)N1C(=O)N[C@H](C)c1ccccc1 [Example 2] | > 1.67 h |
| CC(=O)OCOC(=O)[C@@H]1[C@@H](Cc2ccnc(NC(=O)OCOC(=O)C(C)C)c2)C(=O)N1C(=O)N[C@H](C)c1ccc2c(c1)OC(F)(F)O2 [Example 180] | < 1.67 h |
| CCCCCCOC(=O)Nc1cc(C[C@H]2C(=O)N(C(=O)NC(c3ccccc3)c3ccccc3)[C@@H]2C(=O)O)ccn1 [Example 56] | > 1.67 h |
| C[C@@H](NC(=O)N1C(=O)[C@H](Cc2cncs2)[C@H]1C(=O)O)c1ccc2c(c1)OC(F)(F)O2 [Example 102] | > 1.67 h |
| CCOC(=O)[C@@H]1[C@@H](Cc2ccnc(NC(=O)OC(C)OC(=O)C(C)C)c2)C(=O)N1C(=O)N[C@H](C)C1CCCCC1 (some centres unmarked) [Example 150] | < 1.67 h |
